Source: article PMC4483627 (Marine Drugs, 2015)
Where two headings read alike, the source gives them in different places. Positions of bridges follow the written chain, without caps; N, C: chain ends. Residues, ends and D or L forms follow the SMILES beside them.

Experiments:
rat nAChR α6/α3β2β3 = target: T1, rat nAChR α6/α3β2β3 (Rattus norvegicus, UniProt P04757+P12390+P12391+P43143); experiment: cell-based
T1 construct: expressed in transfected cells; host or cells: Xenopus oocytes injected with cRNA

rat nAChR α4β4 = target: T2, rat nAChR α4β4 (Rattus norvegicus, UniProt P09483+P12392); experiment: cell-based
T2 construct: expressed in transfected cells; host or cells: Xenopus oocytes injected with cRNA

rat nAChR α7 = target: T3, rat nAChR α7 (Rattus norvegicus, UniProt Q05941); experiment: cell-based
T3 construct: expressed in transfected cells; host or cells: Xenopus oocytes injected with cRNA

rat nAChR α2β4 = target: T4, rat nAChR α2β4 (Rattus norvegicus, UniProt P12389+P12392); experiment: cell-based; conditions: IC50 α2β4
T4 construct: expressed in transfected cells; host or cells: Xenopus oocytes injected with cRNA

rat nAChR α9α10 = target: T5, rat nAChR α9α10 (Rattus norvegicus, UniProt P43144+Q9JLB5); experiment: cell-based
T5 construct: expressed in transfected cells; host or cells: Xenopus oocytes injected with cRNA

rat nAChR α4β2 = target: T6, rat nAChR α4β2 (Rattus norvegicus, UniProt P09483+P12390); experiment: cell-based
T6 construct: expressed in transfected cells; host or cells: Xenopus oocytes injected with cRNA

rat nAChR α3β4 = target: T7, rat nAChR α3β4 (Rattus norvegicus, UniProt P04757+P12392); experiment: cell-based
T7 construct: expressed in transfected cells; host or cells: Xenopus oocytes injected with cRNA

rat nAChR α2β2 = target: T8, rat nAChR α2β2 (Rattus norvegicus, UniProt P12389+P12390); experiment: cell-based
T8 construct: expressed in transfected cells; host or cells: Xenopus oocytes injected with cRNA

rat nAChR α3β2 [1] = target: T9, rat nAChR α3β2 (Rattus norvegicus, UniProt P04757+P12390); experiment: cell-based; format: cell-based
T9 construct: expressed in transfected cells; host or cells: Xenopus oocytes injected with cRNA

rat nAChR α3β2 [2] = target: T9, rat nAChR α3β2; conditions: cited from earlier work
rat nAChR α3β2 [3] = target: T9, rat nAChR α3β2; experiment: cell-based; format: cell-based; remark: listed apart in the source

T9 sequence (P04757 26-499 limits assumed): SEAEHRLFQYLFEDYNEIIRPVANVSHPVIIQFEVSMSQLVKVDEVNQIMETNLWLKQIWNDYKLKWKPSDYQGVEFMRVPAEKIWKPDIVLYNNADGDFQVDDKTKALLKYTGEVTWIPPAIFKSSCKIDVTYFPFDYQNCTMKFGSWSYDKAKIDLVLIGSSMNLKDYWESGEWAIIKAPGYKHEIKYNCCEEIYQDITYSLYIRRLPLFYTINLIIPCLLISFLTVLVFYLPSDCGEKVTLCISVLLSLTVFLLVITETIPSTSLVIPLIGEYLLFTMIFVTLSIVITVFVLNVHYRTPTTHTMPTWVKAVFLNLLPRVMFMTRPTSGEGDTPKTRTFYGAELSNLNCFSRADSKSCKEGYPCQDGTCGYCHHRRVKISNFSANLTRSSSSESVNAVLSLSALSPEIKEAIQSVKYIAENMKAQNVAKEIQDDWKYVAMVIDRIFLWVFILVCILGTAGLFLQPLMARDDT
T9 sequence (P12390 25-500 limits assumed): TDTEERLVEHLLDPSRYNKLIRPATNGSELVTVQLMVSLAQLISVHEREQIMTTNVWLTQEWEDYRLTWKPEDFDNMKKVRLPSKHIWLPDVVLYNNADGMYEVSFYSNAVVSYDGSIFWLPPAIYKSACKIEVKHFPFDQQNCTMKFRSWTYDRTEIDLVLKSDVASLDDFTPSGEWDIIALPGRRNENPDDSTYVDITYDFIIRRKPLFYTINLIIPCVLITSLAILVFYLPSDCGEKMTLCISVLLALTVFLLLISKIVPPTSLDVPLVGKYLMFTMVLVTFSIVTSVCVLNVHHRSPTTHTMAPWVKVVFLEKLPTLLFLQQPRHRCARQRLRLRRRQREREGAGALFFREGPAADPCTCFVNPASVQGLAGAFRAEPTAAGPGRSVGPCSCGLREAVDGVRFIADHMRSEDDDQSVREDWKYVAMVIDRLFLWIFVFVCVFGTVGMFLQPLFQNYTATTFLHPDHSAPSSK
T5 sequence (P43144 26-479 limits assumed): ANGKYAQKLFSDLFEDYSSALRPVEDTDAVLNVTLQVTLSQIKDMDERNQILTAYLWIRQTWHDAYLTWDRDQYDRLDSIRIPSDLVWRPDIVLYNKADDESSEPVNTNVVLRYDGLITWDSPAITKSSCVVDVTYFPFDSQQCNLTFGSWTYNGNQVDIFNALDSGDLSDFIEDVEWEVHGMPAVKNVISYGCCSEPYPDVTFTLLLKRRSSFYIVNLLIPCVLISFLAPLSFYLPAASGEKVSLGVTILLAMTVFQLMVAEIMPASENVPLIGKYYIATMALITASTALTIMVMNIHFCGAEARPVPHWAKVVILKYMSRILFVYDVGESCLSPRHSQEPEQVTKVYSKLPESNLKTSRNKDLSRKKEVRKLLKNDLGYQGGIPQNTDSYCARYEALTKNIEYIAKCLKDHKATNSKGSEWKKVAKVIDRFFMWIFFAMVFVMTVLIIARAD
T5 sequence (Q9JLB5 25-447 limits assumed): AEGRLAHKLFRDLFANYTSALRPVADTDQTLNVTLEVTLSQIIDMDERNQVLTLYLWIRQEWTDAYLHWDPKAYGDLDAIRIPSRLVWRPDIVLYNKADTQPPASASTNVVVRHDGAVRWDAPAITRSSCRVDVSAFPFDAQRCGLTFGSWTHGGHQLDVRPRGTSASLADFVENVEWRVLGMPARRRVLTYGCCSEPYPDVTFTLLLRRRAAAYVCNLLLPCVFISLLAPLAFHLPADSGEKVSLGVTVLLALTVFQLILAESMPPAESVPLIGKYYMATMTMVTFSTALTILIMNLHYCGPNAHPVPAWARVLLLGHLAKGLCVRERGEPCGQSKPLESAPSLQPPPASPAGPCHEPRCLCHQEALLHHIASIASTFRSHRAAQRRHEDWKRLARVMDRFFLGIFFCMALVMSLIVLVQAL
T3 sequence (Q05941 23-502 limits assumed): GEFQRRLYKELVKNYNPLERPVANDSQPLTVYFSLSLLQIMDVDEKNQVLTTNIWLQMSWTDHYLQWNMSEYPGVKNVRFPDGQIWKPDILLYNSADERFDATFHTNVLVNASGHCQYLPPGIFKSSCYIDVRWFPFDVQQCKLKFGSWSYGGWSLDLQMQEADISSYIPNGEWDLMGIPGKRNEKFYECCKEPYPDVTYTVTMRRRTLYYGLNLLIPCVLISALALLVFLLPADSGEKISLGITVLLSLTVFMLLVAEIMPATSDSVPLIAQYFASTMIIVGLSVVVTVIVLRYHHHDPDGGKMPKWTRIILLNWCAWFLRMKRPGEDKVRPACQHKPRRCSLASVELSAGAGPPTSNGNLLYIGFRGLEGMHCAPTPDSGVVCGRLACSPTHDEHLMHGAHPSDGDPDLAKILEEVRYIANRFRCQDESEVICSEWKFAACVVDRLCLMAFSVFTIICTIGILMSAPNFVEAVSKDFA
T7 sequence (P04757 26-499 limits assumed): as the sequence (P04757 26-499 limits assumed) above
T7 sequence (P12392 21-495 limits assumed): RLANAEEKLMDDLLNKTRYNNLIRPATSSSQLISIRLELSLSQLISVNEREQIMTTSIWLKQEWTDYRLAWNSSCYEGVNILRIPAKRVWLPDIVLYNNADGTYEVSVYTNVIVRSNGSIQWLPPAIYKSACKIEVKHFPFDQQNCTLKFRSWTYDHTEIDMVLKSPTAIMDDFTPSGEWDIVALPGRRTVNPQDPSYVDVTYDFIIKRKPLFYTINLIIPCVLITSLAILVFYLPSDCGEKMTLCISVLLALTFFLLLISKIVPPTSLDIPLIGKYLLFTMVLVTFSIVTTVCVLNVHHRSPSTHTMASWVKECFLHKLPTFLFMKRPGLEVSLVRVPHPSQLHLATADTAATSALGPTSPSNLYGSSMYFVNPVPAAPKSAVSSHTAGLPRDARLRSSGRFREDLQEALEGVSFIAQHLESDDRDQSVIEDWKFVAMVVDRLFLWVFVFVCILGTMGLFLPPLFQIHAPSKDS
T2 sequence (P09483 31-630 limits assumed): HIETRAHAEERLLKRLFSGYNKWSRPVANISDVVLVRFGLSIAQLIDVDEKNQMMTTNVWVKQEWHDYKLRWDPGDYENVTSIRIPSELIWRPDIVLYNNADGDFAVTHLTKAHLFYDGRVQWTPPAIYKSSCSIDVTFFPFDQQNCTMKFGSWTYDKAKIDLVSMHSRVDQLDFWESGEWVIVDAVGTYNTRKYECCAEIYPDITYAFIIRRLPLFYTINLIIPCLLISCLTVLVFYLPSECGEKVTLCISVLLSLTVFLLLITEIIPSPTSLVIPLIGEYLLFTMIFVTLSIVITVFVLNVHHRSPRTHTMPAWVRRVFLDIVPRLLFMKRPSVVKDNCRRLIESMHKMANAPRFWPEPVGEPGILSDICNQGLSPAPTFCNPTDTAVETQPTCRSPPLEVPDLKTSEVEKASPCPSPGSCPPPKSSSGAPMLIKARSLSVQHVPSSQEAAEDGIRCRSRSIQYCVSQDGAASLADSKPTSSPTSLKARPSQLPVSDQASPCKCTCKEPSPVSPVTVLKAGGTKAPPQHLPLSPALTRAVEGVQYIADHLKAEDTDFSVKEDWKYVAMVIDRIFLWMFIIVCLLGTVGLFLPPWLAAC
T2 sequence (P12392 21-495 limits assumed): as the sequence (P12392 21-495 limits assumed) above
T6 sequence (P09483 31-630 limits assumed): as the sequence (P09483 31-630 limits assumed) above
T6 sequence (P12390 25-500 limits assumed): as the sequence (P12390 25-500 limits assumed) above
T4 sequence (P12389 28-511 limits assumed): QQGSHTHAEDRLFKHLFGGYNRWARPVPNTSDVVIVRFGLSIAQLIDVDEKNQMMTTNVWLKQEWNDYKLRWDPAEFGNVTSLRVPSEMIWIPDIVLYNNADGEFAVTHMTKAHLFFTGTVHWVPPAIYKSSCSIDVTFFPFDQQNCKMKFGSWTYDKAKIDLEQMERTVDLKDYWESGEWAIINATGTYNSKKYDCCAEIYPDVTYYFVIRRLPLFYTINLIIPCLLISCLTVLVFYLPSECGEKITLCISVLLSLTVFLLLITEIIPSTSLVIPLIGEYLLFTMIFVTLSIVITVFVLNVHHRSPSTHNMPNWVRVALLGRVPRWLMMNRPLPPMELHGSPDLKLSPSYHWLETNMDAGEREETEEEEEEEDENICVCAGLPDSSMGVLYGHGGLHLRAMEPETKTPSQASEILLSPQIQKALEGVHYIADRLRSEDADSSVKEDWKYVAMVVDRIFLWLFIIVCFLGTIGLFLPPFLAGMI
T4 sequence (P12392 21-495 limits assumed): as the sequence (P12392 21-495 limits assumed) above
T8 sequence (P12389 28-511 limits assumed): as the sequence (P12389 28-511 limits assumed) above
T8 sequence (P12390 25-500 limits assumed): as the sequence (P12390 25-500 limits assumed) above

Compound	IC50 (rat nAChR α6/α3β2β3) [µM]	IC50 (rat nAChR α4β4) [µM]	IC50 (rat nAChR α7) [µM]	IC50 (rat nAChR α2β4) [µM]	IC50 (rat nAChR α9α10) [µM]	IC50 (rat nAChR α4β2) [µM]	IC50 (rat nAChR α3β4) [µM]	IC50 (rat nAChR α2β2) [µM]	kon (rat nAChR α3β2 [1]) [M⁻¹ s⁻¹]	koff (rat nAChR α3β2 [1]; SEM) [s⁻¹]	IC50 (rat nAChR α3β2 [2]) [µM]	IC50 (rat nAChR α3β2 [3]) [µM]
CC(C)C[C@@H]1NC(=O)[C@H](CCC(=O)O)NC(=O)[C@@H]2CCCN2C(=O)[C@H](Cc2c[nH]cn2)NC(=O)[C@H](CO)NC(=O)[C@H](C(C)C)NC(=O)[C@H](Cc2c[nH]cn2)NC(=O)[C@@H]2CSSC[C@H](NC(=O)[C@H](CCC(=O)O)NC(=O)[C@@H]3CCCN3)C(=O)N[C@@H](CSSC[C@@H](C(N)=O)NC1=O)C(=O)N[C@@H]([C@@H](C)O)C(=O)N[C@@H](Cc1c[nH]cn1)C(=O)N1CCC[C@H]1C(=O)N[C@@H](C)C(=O)N2 [Mr1.7] (H-PECCTHPACHVSHPELC-NH2; disulfide 3-9, 4-17)	0.284	> 10	> 10	> 10	0.186	> 10	> 10	> 10	91300	0.00312	–	–
Vc1.1	–	–	–	–	–	–	–	–	–	–	5.53	–
CC(C)C[C@@H]1NC(=O)[C@H](CCC(=O)O)NC(=O)[C@@H]2CCCN2C(=O)[C@H](CC(N)=O)NC(=O)[C@H](CO)NC(=O)[C@H](C(C)C)NC(=O)[C@H](Cc2c[nH]cn2)NC(=O)[C@@H]2CSSC[C@H](NC(=O)[C@H](CCC(=O)O)NC(=O)[C@@H]3CCCN3)C(=O)N[C@@H](CSSC[C@@H](C(N)=O)NC1=O)C(=O)N[C@@H]([C@@H](C)O)C(=O)N[C@@H](Cc1c[nH]cn1)C(=O)N1CCC[C@H]1C(=O)N[C@@H](C)C(=O)N2 [Mr1.7[H13N]] (H-PECCTHPACHVSNPELC-NH2; disulfide 3-9, 4-17)	–	> 10	2.42	> 10	1.83	> 10	> 10	> 10	–	–	–	0.541
